Common to all, as to assay type: binding
One assay has as its target T1, MC3R (Homo sapiens, UniProt P41968).
T1 construct: purchased Promega (in-house HiBiT-GPCR construct library, NanoBRET)
The assay can be described thus: NanoBRET screen HiBiT-MC3R in HEK293. On the procedure: (§1) Each tracer candidate was screened across the entire library of HiBiT-GPCR constructs using NanoBRET as the detection modality. As depicted in Figure 4A, the specificity of interactions was evaluated through decrease in BRET due to competitive displacement of a bound tracer by excess parental compound. Each tracer was analyzed for binding to each HiBiT-GPCR fusion in the absence and in the presence of competing parental compound. Briefly, HEK293 cells were transfected with HiBiT-GPCR constructs diluted into promoterless DNA to reduce expression and maximize translocation to the cell surface. Each tracer candidate was then screened at concentrations of 1 μM and 0.1 μM across cells expressing these fusions. Cells were treated for 1.5 h with tracer either alone or in the presence of 20 μM competing parental compound (i.e., control). BRET was measured upon addition of purified LgBiT and subsequent complementation with HiBiT genetically fused to a GPCR. The specificity of interactions was assessed through a decrease in BRET signal due to competitive displacement of the bound tracer. To further gauge the robustness of these interactions, the fold response over the control (i.e., BRETtracer/BRETcontrol) was calculated. We chose a 1.5-fold response, which translates to ≥7-fold signal over noise as the minimal threshold required to score an interaction as positive. […]. Below we highlight the screening results obtained for our exemplary fluorescent tracers based on Clozapine, Amitriptyline and AZD1283.
(§2) HiBiT-GPCR DNA constructs were diluted in 10 mM Tris pH 8 to a final concentration of 0.01 μg/μL, arrayed in 96-well plates and stored at −20 °C. For transfection, HEK293 cells were suspended in Opti-MEM (without phenol red) supplemented with 2% fetal bovine serum (Seradigm) and 100 units/mL penicillin–streptomycin (Gibco) at a final concentration of 220,000 cells/mL and dispensed into white 96-well plates at 90 μL/well. Subsequent transfections and screens were carried using an Agilent Bravo Automated Liquid Handling Platform. First, the 96-well HiBiT DNA arrays were diluted 25-fold in Opti-MEM (without serum or phenol red) to a final concentration of 0.0004 μg/μL and 20 μL of the diluted DNAs were transferred into new 96-well plates. Next, promoterless carrier DNA (1 μg/μL) was diluted 25-fold (0.04 μg/μL) and then dispensed into the diluted arrays at 20 μL/well. Following brief mixing, Viafect transfection reagent (Promega) diluted 16-fold into Opti-MEM was dispensed into the plates at 40 μL/well. After mixing by pipetting, plates were incubated for 10 min on the pipetting station deck. The DNA-transfection reagent complexes were then added to plates containing cells. To facilitate the screen, 10 μL of DNA-transfection reagent complexes were added in duplicates to the top 4 and bottom 4 rows, resulting in two identical 48-well arrays per plate. Plates with transfected cells were incubated for 18–20 h at 37 °C/5% CO2. A screen of each tracer across the entire library using two different concentrations requires duplicate plates of transfected cells. Depending on the number of tracers being screened, transfections can be scaled up using the same ratios. The next day, for each tracer, four 20× screening solutions in tracer dilution buffer (Promega) were prepared: two duplicates at final concentration of 20 μM and two duplicates at a final concentration of 2 μM. A competing unmodified compound was added to one of each duplicate at a final concentration of 400 μM. The four resulting solutions were diluted 4-fold in Opti-MEM without serum or phenol red to generate 5× solutions (5 µM and 0.5 µM tracer +/− 100 μM competing compound). To screen the library, a BioTek MultiFlo FX liquid dispenser was used to dispense 22.5 µL of tracer solution to the top 4 rows and 22.5 µL tracer + competing compound solution to the 4 bottom rows. Plates were briefly mixed on an orbital shaker and incubated for 1.5 h at room temperature. […]
A general note: BRET reads energy transfer from a luciferase to a nearby fluorophore.

For the next assay, the target named is T2, GRM5 (Homo sapiens, UniProt P41594).
T2 construct: purchased Promega (in-house HiBiT-GPCR construct library, NanoBRET)
T2 sequence (P41594 21-1212): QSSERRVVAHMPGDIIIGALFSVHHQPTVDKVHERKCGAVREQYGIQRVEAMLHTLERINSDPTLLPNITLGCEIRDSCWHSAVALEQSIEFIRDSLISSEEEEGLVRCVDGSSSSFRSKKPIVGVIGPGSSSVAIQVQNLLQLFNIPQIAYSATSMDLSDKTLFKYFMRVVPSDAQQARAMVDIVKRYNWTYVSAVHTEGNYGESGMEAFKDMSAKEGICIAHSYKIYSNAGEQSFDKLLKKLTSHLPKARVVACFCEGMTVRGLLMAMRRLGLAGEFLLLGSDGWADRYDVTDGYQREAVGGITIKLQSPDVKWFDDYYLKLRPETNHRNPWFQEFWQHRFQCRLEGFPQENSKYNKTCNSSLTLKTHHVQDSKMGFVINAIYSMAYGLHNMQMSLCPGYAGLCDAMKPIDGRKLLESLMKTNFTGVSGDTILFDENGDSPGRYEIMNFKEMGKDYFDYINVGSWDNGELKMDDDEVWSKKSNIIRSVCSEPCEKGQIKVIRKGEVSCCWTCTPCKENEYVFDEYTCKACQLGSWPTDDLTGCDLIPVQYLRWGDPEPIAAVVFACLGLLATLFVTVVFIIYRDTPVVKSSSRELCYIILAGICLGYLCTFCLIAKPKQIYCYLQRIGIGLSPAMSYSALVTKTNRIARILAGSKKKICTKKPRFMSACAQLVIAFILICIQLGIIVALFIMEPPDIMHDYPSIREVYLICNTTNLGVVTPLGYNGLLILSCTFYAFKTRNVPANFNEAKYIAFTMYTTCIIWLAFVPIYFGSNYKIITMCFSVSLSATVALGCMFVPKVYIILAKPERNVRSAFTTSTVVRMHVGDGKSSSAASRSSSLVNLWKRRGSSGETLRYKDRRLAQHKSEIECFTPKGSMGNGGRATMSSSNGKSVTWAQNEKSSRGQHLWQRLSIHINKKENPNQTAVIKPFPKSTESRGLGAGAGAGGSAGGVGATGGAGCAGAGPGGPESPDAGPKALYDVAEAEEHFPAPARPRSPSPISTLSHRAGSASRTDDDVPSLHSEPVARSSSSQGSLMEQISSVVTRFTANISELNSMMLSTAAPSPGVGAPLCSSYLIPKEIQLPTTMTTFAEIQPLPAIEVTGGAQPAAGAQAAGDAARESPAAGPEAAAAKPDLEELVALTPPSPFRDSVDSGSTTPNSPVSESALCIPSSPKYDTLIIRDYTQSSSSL
As to the kind of experiment: NanoBRET screen HiBiT-GRM5 in HEK293. On the procedure:
as §1, §2

Another assay has as its target T3, GNRHR (Homo sapiens, UniProt P30968).
T3 construct: purchased Promega (in-house HiBiT-GPCR construct library, NanoBRET)
T3 sequence (P30968 1-328): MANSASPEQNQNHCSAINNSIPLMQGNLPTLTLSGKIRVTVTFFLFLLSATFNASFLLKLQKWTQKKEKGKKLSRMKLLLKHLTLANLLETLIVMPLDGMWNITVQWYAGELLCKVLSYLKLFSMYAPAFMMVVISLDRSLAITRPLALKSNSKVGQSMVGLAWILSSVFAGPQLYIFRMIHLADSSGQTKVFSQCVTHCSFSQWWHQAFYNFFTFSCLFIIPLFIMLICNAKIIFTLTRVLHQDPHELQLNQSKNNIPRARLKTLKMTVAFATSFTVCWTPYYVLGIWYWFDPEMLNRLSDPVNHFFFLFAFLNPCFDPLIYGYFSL
The assay can be described thus: NanoBRET screen HiBiT-GNRHR in HEK293. On the procedure:
as §1, §2

For a further assay, the target named is T4, HTR5A (Homo sapiens, UniProt P47898).
T4 construct: purchased Promega (in-house HiBiT-GPCR construct library, NanoBRET)
T4 sequence (P47898 whole entry): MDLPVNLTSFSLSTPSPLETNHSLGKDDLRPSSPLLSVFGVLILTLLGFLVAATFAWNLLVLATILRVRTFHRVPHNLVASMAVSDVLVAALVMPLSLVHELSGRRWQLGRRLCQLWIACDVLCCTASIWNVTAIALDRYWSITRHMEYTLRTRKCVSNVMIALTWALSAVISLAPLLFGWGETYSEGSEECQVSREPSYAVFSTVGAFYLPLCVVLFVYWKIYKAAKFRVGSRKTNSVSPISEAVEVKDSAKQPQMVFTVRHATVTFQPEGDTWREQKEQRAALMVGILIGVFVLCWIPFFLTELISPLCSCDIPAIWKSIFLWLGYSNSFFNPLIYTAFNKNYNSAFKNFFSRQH
The assay can be described thus: NanoBRET screen HiBiT-HTR5A in HEK293. How it is done: as §1, §2

T1 sequence (P41968 whole entry): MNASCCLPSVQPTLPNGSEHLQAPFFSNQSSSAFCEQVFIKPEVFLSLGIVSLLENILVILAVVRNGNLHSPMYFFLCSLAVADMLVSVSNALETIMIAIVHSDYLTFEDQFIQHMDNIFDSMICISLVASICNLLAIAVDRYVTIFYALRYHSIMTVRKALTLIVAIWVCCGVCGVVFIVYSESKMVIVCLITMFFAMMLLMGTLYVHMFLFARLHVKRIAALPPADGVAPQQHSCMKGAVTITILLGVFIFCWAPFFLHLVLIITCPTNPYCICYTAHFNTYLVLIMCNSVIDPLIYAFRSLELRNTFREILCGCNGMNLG

On to `COc1ccc2c(n1)c(CCNC(C)=O)cn2CCNC(=O)CCc1ccc2n1[B-](F)(F)[N+]1=C(c3ccc[nH]3)C=CC1=C2` [Azamelatonin-1-NB590], for which the “NanoBRET Fold Response” value is 0.93 on MC3R (0.1μM tracer); 1.22 on MC3R (1μM tracer); 0.84 at GRM5 (0.1μM tracer); 0.95 on GRM5 (1μM tracer); 0.96 on GNRHR (0.1μM tracer); 1.06 at GNRHR (1μM tracer). Further, the “NanoBRET Fold Response” value at HTR5A (0.1μM tracer) and on HTR5A (1μM tracer) was 0.89 in each case.
For the compound `CC(C)N(CC[C@H](c1ccccc1)c1cc(CCNC(=O)c2ccc(CNC(=O)CCc3ccc4n3[B-](F)(F)[N+]3=C(c5ccc[nH]5)C=CC3=C4)cc2)ccc1O)C(C)C` [Tolterodine-BZ-NB590], the “NanoBRET Fold Response” value at MC3R (MC3R, tracer 0.1μM) worked out at 1.03; at MC3R (MC3R, tracer 1μM), 1.01; on GRM5 (GRM5, tracer 0.1μM), 1.00; at GRM5 (GRM5, tracer 1μM), 1.05; at GNRHR (GNRHR, tracer 0.1μM), 1.03; on GNRHR (GNRHR, tracer 1μM) it was 1.07. In addition, the “NanoBRET Fold Response” value worked out at 0.98 on HTR5A (HTR5A, tracer 0.1μM) and 1.03 at HTR5A (HTR5A, tracer 1μM).
In the case of `O=C(CCc1ccc2n1[B-](F)(F)[N+]1=C(c3ccc[nH]3)C=CC1=C2)NCCOCCOCCNC(=O)OCCOCCN1CCN(C2=Nc3ccccc3Sc3ccccc32)CC1` [Quetiapine-a-2-NB590], the “NanoBRET Fold Response” value at MC3R (MC3R, tracer 0.1μM) is recorded as 0.98; on MC3R (MC3R, tracer 1μM) it was 1.08; on GRM5 (GRM5, tracer 0.1μM), 1.08; at GRM5 (GRM5, tracer 1μM), 1.05; on GNRHR (GNRHR, tracer 0.1μM), 0.97; at GNRHR (GNRHR, tracer 1μM), 0.81. The “NanoBRET Fold Response” value is 0.96 on HTR5A (HTR5A, tracer 0.1μM) and 0.99 on HTR5A (HTR5A, tracer 1μM).
As to `Cc1cc2c(s1)Nc1ccccc1N=C2N1CCN(CCCNC(=O)CCOCCOCCOCCOCCNC(=O)CCc2ccc3n2[B-](F)(F)[N+]2=C(c4ccc[nH]4)C=CC2=C3)CC1` [Olanzapine-a-2-NB590], the “NanoBRET Fold Response” value on MC3R (MC3R, tracer 0.1μM) was determined as 1.00; at MC3R (MC3R, tracer 1μM), 1.12; at GRM5 (GRM5, tracer 0.1μM), 0.95; on GRM5 (GRM5, tracer 1μM), 0.97; at GNRHR (GNRHR, tracer 0.1μM), 1.02; at GNRHR (GNRHR, tracer 1μM) it was 1.04. Further, the “NanoBRET Fold Response” value at HTR5A (HTR5A, tracer 0.1μM) turned out to be 1.06; on HTR5A (HTR5A, tracer 1μM), 1.03.
As for `O=C(CCc1ccc2n1[B-](F)(F)[N+]1=C(c3ccc[nH]3)C=CC1=C2)NCc1ccc(C(=O)NCCOCCOCCNCC(O)COc2cccc3ccccc23)cc1` (stereo not drawn) [Propranolol-3-NB590], the “NanoBRET Fold Response” value is on record as 1.05 at MC3R (MC3R, 0.1μM); 0.99 at MC3R (MC3R, 1μM); 1.04 on GRM5 (GRM5, 0.1μM); 1.02 at GRM5 (GRM5, 1μM); 1.12 at GNRHR (GNRHR, 0.1μM); 1.03 on GNRHR (GNRHR, 1μM). The “NanoBRET Fold Response” value amounted to 1.10 on HTR5A (HTR5A, 0.1μM) and 1.03 on HTR5A (HTR5A, 1μM).
With `N#CN/C(=N\CCNC(=O)c1ccc(N)cc1)NCCCOc1cccc(CN2CCCCC2)c1` [Aminopotentidine (unmodified)], the “NanoBRET Fold Response” value is listed as 1.11 at HTR5A (HTR5A, other tracers/Aminopotentidine (unmodified), 0.1μM) and 1.09 on HTR5A (HTR5A, other tracers/Aminopotentidine (unmodified), 1μM).
For the compound `CN1CCN(C2=Nc3cc(Cl)ccc3N(CC(=O)NCCOCCOCCOCCOCCNC(=O)CCc3ccc4n3[B-](F)(F)[N+]3=C(c5ccc[nH]5)C=CC3=C4)c3ccccc32)CC1` [Clozapine-c-2-NB590], the “NanoBRET Fold Response” value at MC3R (MC3R, 0.1μM tracer) amounted to 1.02; on MC3R (MC3R, 1μM tracer) it was 1.03; at GRM5 (GRM5, 0.1μM tracer), 0.99; at GRM5 (GRM5, 1μM tracer), 1.12; on GNRHR (GNRHR, 0.1μM tracer) it was 1.02; at GNRHR (GNRHR, 1μM tracer), 0.99. For the same compound, the “NanoBRET Fold Response” value on HTR5A (HTR5A, 0.1μM tracer) is 1.02; at HTR5A (HTR5A, 1μM tracer) it was 1.00.
Turning to `O=C(CCc1ccc2n1[B-](F)(F)[N+]1=C(c3ccc[nH]3)C=CC1=C2)NCc1ccc(C(=O)NCCOCCC(=O)N[C@@H]2CC[C@@]3(O)[C@H]4Cc5ccc(O)c6c5[C@@]3(CCN4CC3CC3)[C@H]2O6)cc1` [Naltrexone-3-NB590], the “NanoBRET Fold Response” value on MC3R (MC3R, tracer 0.1μM) is given as 0.90; on MC3R (MC3R, tracer 1μM) it was 1.11; at GRM5 (GRM5, tracer 0.1μM), 1.25; on GRM5 (GRM5, tracer 1μM), 1.14; on GNRHR (GNRHR, tracer 0.1μM) it was 0.90; at GNRHR (GNRHR, tracer 1μM), 0.99. The “NanoBRET Fold Response” value at HTR5A (HTR5A, tracer 0.1μM) was 0.69; at HTR5A (HTR5A, tracer 1μM) it was 0.98.
`CC(C)N(CC[C@H](c1ccccc1)c1cc(CCNC(=O)CCOCCOCCOCCOCCNC(=O)CCc2ccc3n2[B-](F)(F)[N+]2=C(c4ccc[nH]4)C=CC2=C3)ccc1O)C(C)C` [Tolterodine-2-NB590]: the “NanoBRET Fold Response” value at MC3R (MC3R, tracer 0.1μM) is given as 0.82; on MC3R (MC3R, tracer 1μM) it was 1.04; on GRM5 (GRM5, tracer 0.1μM), 0.99; at GRM5 (GRM5, tracer 1μM), 0.87; on GNRHR (GNRHR, tracer 0.1μM) it was 1.23; at GNRHR (GNRHR, tracer 1μM), 1.15. For the same compound, the “NanoBRET Fold Response” value was 1.07 on HTR5A (HTR5A, tracer 0.1μM) and 1.05 at HTR5A (HTR5A, tracer 1μM).
Regarding `Cc1nc2n(c(=O)c1CCN1CCC(c3noc4cc(F)ccc34)CC1)CCCC2OC(=O)NCCOCCOCCOCCOCCNC(=O)CCc1ccc2n1[B-](F)(F)[N+]1=C(c3ccc[nH]3)C=CC1=C2` (stereo not drawn) [Risperidone-2-NB590], the “NanoBRET Fold Response” value on MC3R (MC3R, tracer 0.1μM) was determined as 0.99; on MC3R (MC3R, tracer 1μM), 0.95; on GRM5 (GRM5, tracer 0.1μM), 0.98; on GRM5 (GRM5, tracer 1μM) it was 1.02; at GNRHR (GNRHR, tracer 0.1μM) it was 0.88; at GNRHR (GNRHR, tracer 1μM) it was 0.97. The “NanoBRET Fold Response” value on HTR5A (HTR5A, tracer 0.1μM) is 1.03; on HTR5A (HTR5A, tracer 1μM) it was 1.28.
Turning to `CN(CCC=C1c2ccccc2CCc2ccccc21)C(=O)CCOCCOCCOCCOCCNC(=O)CCc1ccc2n1[B-](F)(F)[N+]1=C(c3ccc[nH]3)C=CC1=C2` [Amitriptyline-e-2-NB590], the “NanoBRET Fold Response” value at HTR5A (tracer at 1μM) is recorded as 1.05.
In the case of `CN(C)CCC=C1c2ccccc2CCc2ccc(C(=O)NCCNC(=O)CCOCCOCCOCCOCCNC(=O)CCc3ccc4n3[B-](F)(F)[N+]3=C(c5ccc[nH]5)C=CC3=C4)cc21` [Amitriptyline-a-2-NB590], the figures for the “NanoBRET Fold Response” value on GNRHR (tracer at 0.1μM), on GNRHR (tracer at 1μM) and on HTR5A (tracer at 0.1μM) were 0.97, 1.06 and 1.08, respectively.

These data come from PMC8151276, “An Integrated Approach toward NanoBRET Tracers for Analysis of GPCR Ligand Engagement” (Molecules, 2021).
